Experimental data: ChEMBL document CHEMBL1147866, “Cyclic monophosphate prodrugs of base-modified 2'-C-methyl ribonucleosides as potent inhibitors of hepatitis C virus RNA replication” (Bioorg Med Chem Lett, 2007)

Legend:
[1] = system: Bovine viral diarrhea virus 1; test: Antiviral activity against Bovine viral diarrhea virus 1; format: functional, organism-based; details: Bovine viral diarrhea virus isolates and strains
Hepatitis C virus = test: Antiviral activity against hepatitis C virus replication; format: functional, organism-based, Hepacivirus hominis
[2] = Metabolic stability in rat plasma after 1 hr; format: ADME, organism-based; details: read-out: Stability
Rhesus monkey = test: Metabolic stability in monkey plasma after 1 hr; format: ADME, Macaca mulatta
Homo sapiens = species on record: Homo sapiens; test: Metabolic stability in human plasma after 1 hr; format: ADME, organism-based

SMILES	EC50 [1] [nM]	EC50 (Hepatitis C virus) [nM]	remaining at 1 h [2] [%]	Stability (Rhesus monkey)	Stability (Homo sapiens)
CN(NS(C)(=O)=O)c1nc(N)nc2c1ncn2[C@@H]1O[C@@H]2OP(=O)(OCCSC(=O)C(C)(C)C)O[C@H]2[C@@]1(C)O (some centres undefined)	33	22	–	–	–
CC(C)OC(=O)OCOP1(=O)O[C@H]2O[C@@H](n3cnc4c(N(C)NS(C)(=O)=O)ncnc43)[C@](C)(O)[C@@H]2O1 (some centres undefined)	420	463	–	–	–
CN(NS(C)(=O)=O)c1ncnc2c1ncn2[C@@H]1O[C@@H]2OP(=O)(OCCSC(=O)C(C)(C)C)O[C@H]2[C@@]1(C)O (some centres undefined)	245	145	–	–	–
CC(C)OC(=O)OCOP1(=O)O[C@H]2O[C@@H](n3cnc4c(N(C)NS(C)(=O)=O)nc(N)nc43)[C@](C)(O)[C@@H]2O1 (some centres undefined)	216	163	–	–	–
CCCOC(C)(C)C(=O)SCCOP1(=O)O[C@H]2O[C@@H](n3cnc4c(N(C)NS(C)(=O)=O)nc(N)nc43)[C@](C)(O)[C@@H]2O1 (some centres undefined)	16	8	4	Stable	Stable
CN(NS(C)(=O)=O)c1nc(N)nc2c1ncn2[C@@H]1O[C@@H]2OP(=O)(OCOC(=O)C(C)(C)C)O[C@H]2[C@@]1(C)O (some centres undefined)	223	92	–	–	–
CN(NS(C)(=O)=O)c1ncnc2c1ncn2[C@@H]1O[C@@H]2OP(=O)(OCOC(=O)C(C)(C)C)O[C@H]2[C@@]1(C)O (some centres undefined)	962	414	–	–	–
CCCOCC(C)(C)C(=O)SCCOP1(=O)O[C@H]2O[C@@H](n3cnc4c(N(C)NS(C)(=O)=O)ncnc43)[C@](C)(O)[C@@H]2O1 (some centres undefined)	110	39	–	–	–
